Patent US11434194B2, “Amorphous form of vilanterol trifenatate and processes for the preparation thereof” (Hovione Scientia Limited, priority 2017, dated 2022)

Key:
Type in all cases: physicochemical
[1] = Dynamic vapour sorption (DVS) analysis / kinetic moisture sorption, hygroscopicity; settings: for Change In Mass (%) Desorption / Change In Mass (%) Hysteresis / Change In Mass (%) Sorption: 25° C.
Procedure: The values in the table are weight % variations that result from the use of the European Pharmacopoeia equation provided below. The hygroscopicity value is indicated from the sorption row at 80% RH of cycle 1.
The sample was subjected to DVS measuring using SMS-DVS intrinsic. The kinetic moisture sorption measurement was performed at 25° C. and in a RH % range described in the following: • From 40% RH to 90% RH • Form 90% RH to 0% RH • From 0% RH to 90% RH • From 90% RH to 0% RH
The sample was analyzed by XRPD after the analysis.
The hygroscopicity was calculated using the following equation: % Weight Change=[(W2−W1)/W1]*100, (1) wherein W1 is the weight of the sample at the start of the experiment (25° C. and 40% RH), and W2 is the weight of the sample at 25° C. and 80% RH in the first absorption cycle.

[2] = Visual solubility in differing solvents (European Pharmacopeia 6.0 section 5.11)
Procedure: Visual solubility of the amorphous form of the invention in differing solvents was assessed according to the procedure described in the European Pharmacopeia 6.0 section 5.11. p. 659 (see corresponding SI dissolution ranges in Table 2), and compared with that for Form 1. The following method was used: Dissolving procedure: the compound was shaken vigorously for 1 min and placed in a constant temperature device for 15 min at 25.0±0.5° C. If the compound was not completely dissolved, the shaking was repeated for 1 min and the tube placed in a constant temperature device for 15 min. Method: 50 mg of compound was weighed in a stoppered tube, 0.05 mL of the solvent added and the Dissolving Procedure (see above) followed. If the compound was completely dissolved, it was defined very soluble. If the compound was not completely dissolved, a further 0.45 mL of the solvent was added and the Dissolving Procedure (see above) followed. […] If the compound was still not completely dissolved, still further 1.0 mL of the solvent was added and the Dissolving Procedure (see above) followed. If the compound was completely dissolved, it was defined as soluble. If the compound was still not completely dissolved, another 3.5 mL of the solvent was added and the Dissolving Procedure (see above) followed. […] If the compound was still not completely dissolved, the compound was slightly soluble or very slightly soluble. In this case, the suspension was heated up to the boiling point (max 80° C.) under stirring to verify the solubility at high temperature. The hot solution was afterwards cooled to room temperature to observe whether the compound precipitates. If the compound at room, temperature was completely dissolved, it is soluble at high temperature. [table]

[3] = Solid-state storage stability (XRPD pattern, HPLC chromatogram)
Procedure: Such conditions reflect conditions similar to those in which the current medicaments (mentioned above) may be stored.
HPLC analysis was conducted using a waters system under the following conditions:
X-ray powder patterns were recorded using the PANalytical X'Pert PRO X-ray diffraction system equipped with a PW3373/00 Cu LFF DK184511 X-Ray tube and a X'Celerator RTMS (Real Time Multiple Strip) detector under the following conditions: […]

## OCc1cc([C@@H](O)CNCCCCCCOCCOCc2c(Cl)cccc2Cl)ccc1O [amorphous vilanterol trifenatate, 4-((1R)-2-((6-(2-((2,6-Dichlorophenyl)methoxy)ethoxy)-hexyl)amino)-1-hydroxyethyl)-2-(hydroxymethyl)phenol triphenylacetate]
[1]; 80% RH at 25° C., sorption, cycle 1
  mass increase (dynamic vapour sorption analysis; hygroscopicity value): 1.34%
[1]; % weight change from 40% RH to 80% RH at 25° C., first absorption cycle
  hygroscopicity classification (European Pharmacopeia version 7): slightly hygroscopic
[1]; Cycle 1, target RH 0.0%
  Change In Mass (%) Desorption: 1.186%
[1]; Cycle 1, target RH 10.0%
  Change In Mass (%) Desorption: 1.224%
[1]; Cycle 1, target RH 20.0%
  Change In Mass (%) Desorption: 1.257%
[1]; Cycle 1, target RH 30.0%
  Change In Mass (%) Desorption: 1.298%
[1]; Cycle 1, target RH 40.0%
  Change In Mass (%) Desorption: 1.333%
  Change In Mass (%) Hysteresis: 1.332%
  Change In Mass (%) Sorption: 0.001%
[1]; Cycle 1, target RH 50.0%
  Change In Mass (%) Desorption: 1.368%
  Change In Mass (%) Hysteresis: 1.101%
  Change In Mass (%) Sorption: 0.267%
[1]; Cycle 1, target RH 60.0%
  Change In Mass (%) Desorption: 1.401%
  Change In Mass (%) Hysteresis: 0.784%
  Change In Mass (%) Sorption: 0.618%
[1]; Cycle 1, target RH 70.0%
  Change In Mass (%) Desorption: 1.437%
  Change In Mass (%) Hysteresis: 0.423%
  Change In Mass (%) Sorption: 1.013%
[1]; Cycle 1, target RH 80.0%
  Change In Mass (%) Desorption: 1.474%
  Change In Mass (%) Hysteresis: 0.131%
  Change In Mass (%) Sorption: 1.344%
[1]; Cycle 1, target RH 90.0%
  Change In Mass (%) Desorption: 1.516%
  Change In Mass (%) Sorption: 1.516%
[1]; Cycle 2, target RH 0.0%
  Change In Mass (%) Desorption: 1.063%
  Change In Mass (%) Sorption: 1.186%
[1]; Cycle 2, target RH 10.0%
  Change In Mass (%) Desorption: 1.186%
  Change In Mass (%) Hysteresis: 0.006%
  Change In Mass (%) Sorption: 1.180%
[1]; Cycle 2, target RH 20.0%
  Change In Mass (%) Desorption: 1.214%
  Change In Mass (%) Hysteresis: 0.035%
  Change In Mass (%) Sorption: 1.179%
[1]; Cycle 2, target RH 30.0%
  Change In Mass (%) Desorption: 1.243%
  Change In Mass (%) Hysteresis: 0.061%
  Change In Mass (%) Sorption: 1.182%
[1]; Cycle 2, target RH 40.0%
  Change In Mass (%) Desorption: 1.269%
  Change In Mass (%) Hysteresis: 0.079%
  Change In Mass (%) Sorption: 1.189%
[1]; Cycle 2, target RH 50.0%
  Change In Mass (%) Desorption: 1.294%
  Change In Mass (%) Hysteresis: 0.090%
  Change In Mass (%) Sorption: 1.205%
[1]; Cycle 2, target RH 60.0%
  Change In Mass (%) Desorption: 1.320%
  Change In Mass (%) Hysteresis: 0.093%
  Change In Mass (%) Sorption: 1.228%
[1]; Cycle 2, target RH 70.0%
  Change In Mass (%) Desorption: 1.345%
  Change In Mass (%) Hysteresis: 0.084%
  Change In Mass (%) Sorption: 1.262%
[1]; Cycle 2, target RH 80.0%
  Change In Mass (%) Desorption: 1.369%
  Change In Mass (%) Hysteresis: 0.061%
  Change In Mass (%) Sorption: 1.308%
[1]; Cycle 2, target RH 90.0%
  Change In Mass (%) Desorption: 1.393%
  Change In Mass (%) Sorption: 1.393%
[2]; 1,4-dioxane at 25° C., listed as amorphous of vilanterol trifenatate
  visual solubility: soluble
[2]; ethanol at 50° C.
  visual solubility: sparingly soluble
[3]; 60% RH at 25° C. (7 days)
  XRPD patterns before and after exposure: unchanged
[3]; room temperature
  time stable on storage (XRPD pattern and HPLC chromatograms remained the same): at least 5 months

## OCc1cc([C@@H](O)CNCCCCCCOCCOCc2c(Cl)cccc2Cl)ccc1O [Form I, 4-((1R)-2-((6-(2-((2,6-Dichlorophenyl)methoxy)ethoxy)-hexyl)amino)-1-hydroxyethyl)-2-(hydroxymethyl)phenol triphenylacetate]
[2]; 1,4-dioxane at 25° C.
  visual solubility: freely soluble
[2]; THF at 25° C.
  visual solubility: freely soluble
[2]; ethanol at 25° C.
  visual solubility: sparingly soluble
[2]; methanol at 25° C.
  visual solubility: soluble
